Test results from patent EP4353712A1 (Biodol Therapeutics, priority 2022, dated 2024).
Where a name gives a salt, the structure may show the parent alone.

The compounds below were run against T1, FLT3 (Homo sapiens, UniProt P36888) (assay: HTRF binding assay of FL to FLT3 (TR-FRET, SNAP-FLT3 transfected HEK293T cells)). Conditions: HEK293T cells transfected with SNAP-FLT3, labelled with SNAP-Lumi4-Tb; compounds 1 h at room temperature, then FL-d2 (0.5 nM), read after 20 h; 12 dilutions in triplicates, performed twice; read-out: Inhibition of FLT3 binding IC50, binding.
T1 construct: expressed in transfected cells; host or cells: HEK293T
T1 sequence (P36888 27-993): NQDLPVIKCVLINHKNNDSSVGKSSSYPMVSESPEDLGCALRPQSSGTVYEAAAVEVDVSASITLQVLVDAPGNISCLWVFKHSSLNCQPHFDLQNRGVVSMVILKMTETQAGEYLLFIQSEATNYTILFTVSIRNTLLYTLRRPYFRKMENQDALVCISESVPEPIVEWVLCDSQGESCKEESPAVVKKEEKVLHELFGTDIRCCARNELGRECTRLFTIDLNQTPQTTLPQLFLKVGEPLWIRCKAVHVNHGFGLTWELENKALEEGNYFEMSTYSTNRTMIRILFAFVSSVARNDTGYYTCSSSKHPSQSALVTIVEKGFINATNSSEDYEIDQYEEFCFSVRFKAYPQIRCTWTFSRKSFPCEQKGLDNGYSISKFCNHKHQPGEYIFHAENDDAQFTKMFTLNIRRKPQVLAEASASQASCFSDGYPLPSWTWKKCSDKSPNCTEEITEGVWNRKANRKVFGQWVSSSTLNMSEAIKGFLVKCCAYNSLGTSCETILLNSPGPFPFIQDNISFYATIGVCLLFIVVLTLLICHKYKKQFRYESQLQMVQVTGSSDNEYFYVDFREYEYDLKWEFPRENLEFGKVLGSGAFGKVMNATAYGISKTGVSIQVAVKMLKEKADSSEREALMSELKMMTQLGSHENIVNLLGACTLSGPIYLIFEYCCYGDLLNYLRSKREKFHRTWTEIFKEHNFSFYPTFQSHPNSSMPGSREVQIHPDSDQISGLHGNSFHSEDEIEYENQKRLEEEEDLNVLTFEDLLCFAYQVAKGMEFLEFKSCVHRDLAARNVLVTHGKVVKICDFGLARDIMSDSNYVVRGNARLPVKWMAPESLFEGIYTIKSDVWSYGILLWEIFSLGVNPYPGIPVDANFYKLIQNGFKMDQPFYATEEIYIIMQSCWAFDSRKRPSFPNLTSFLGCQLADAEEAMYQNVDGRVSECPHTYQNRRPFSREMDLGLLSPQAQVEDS
Method: The binding of FL to FLT3 was measured by a Homologous Time-Resolved Fluorescence (HTRF) assay (Degorce et al., Current Chemical Genomics, 2009, 3, 22-32), which involves resonance energy transfer between a donor, Lumi4-Tb-donor-derivatized benzylguanine substrate (SNAP-Lumi4-Tb, excitation: 337 nm, emission: 630 nm, Cisbio, France), transfected in HEK cells, and an acceptor, red fluorescent FL (FL-d2, excitation: 620 nm, emission: 660 nm, Cisbio, France). When FL-d2 binds to the SNAP-Lumi4-Tb-tagged FLT3 receptor, the proximity of both fluorophores allows the time-resolved Förster resonance energy transfer (TR-FRET) signal to occur and the binding is measured as the ratio between the fluorescent emissions at 660 to 620 nm.
The detailed method is described in Rivat et al. (Nature Communications, 2018, 9 :1042). Briefly, HEK293T cells were transfected with a pCDNA3.1 SNAP-FLT3 plasmid by using Lipofectamine (Invitrogen), and were than labelled with SNAP-Lumi4-Tb. Plates containing attached transfected HEK293T cells were incubated with compounds of formula (I) for 1 h at room temperature. A series of 12 dilutions in triplicates was used for each compound and the experiment was performed twice. Then FL-d2 (0.5 nM) was added and the TR-FRET signal was read after 20 h incubation at room temperature with a HTRF-compatible reader (Envision, Perkin Elmer) allowing a donor excitation at 337 nm and a signal collection both at 615 nm and 665 nm (20 flashes, delay 50 µs, integration time 400 µs). Then HTRF ratio, obtained by dividing the acceptor signal (665 nm) by the donor signal (615 nm), was calculated at each concentration of test compounds. Non-specific binding was measured in the presence 50 µM of BDT001 (Rivat et al., ibid.). Concentration giving 50 % inhibition (IC50) were calculated by non-linear regression analysis for a one-site model, with variable slope (Prism®, Graphpad software, USA).
CN(C)CCOc1ccc(C(=O)Nc2ccc(F)c3ncccc23)cc1 [(20), 4-(2-(dimethylamino)ethoxy)-N-(8-fluoroquinolin-5-yl)benzamide] showed an IC50 of 6200 nM. CN(C)CCOc1ccc(C(=O)Nc2ccc(F)c3cnccc23)cc1 [(33), 4-[2-(dimethylamino)ethoxy]-N-(8-fluoroisoquinolin-5-yl)benzamide] gave an IC50 of 2300 nM. CN(C)CCOc1ccc(C(=O)Nc2cccc3ccncc23)cc1 [(10), 4-[2-(dimethylamino)ethoxy]-N-(isoquinolin-8-yl)benzamide] showed an IC50 of 800 nM. CN(C)CCOc1ccc(C(=O)Nc2cccc3cnccc23)cc1 [(14), 4-(2-(dimethylamino)ethoxy)-N-(isoquinolin-5-yl)benzamide] gave an IC50 of 900 nM. Cc1cc(C(=O)Nc2cccc3cccnc23)ccc1OCCN(C)C [(43), 4-(2-(dimethylamino)ethoxy)-3-methyl-N-(quinolin-8-yl)benzamide] gave an IC50 of 2100 nM. CN1CCC(c2ccc(C(=O)Nc3cccc4cnccc34)c(S(C)(=O)=O)c2)CC1 [(25), N-(isoquinolin-5-yl)-2-methanesulfonyl-4-(1-methylpiperidin-4-yl)benzamide] was tested, and the IC50 was 2600 nM. For COc1cc(C2CCN(C)CC2)ccc1C(=O)Nc1cccc2cccnc12 [(16), 2-methoxy-4-(1-methylpiperidin-4-yl)-N-(quinolin-8-yl)benzamide], the IC50 was 600 nM. Compound CN1CCN(c2ccc(C(=O)Nc3cccc4ccncc34)cc2)CC1 [(38), N-(isoquinolin-8-yl)-4-(4-methylpiperazin-1-yl)benzamide] has an IC50 of 600 nM. CN1CCC(c2ccc(C(=O)Nc3ccc(F)c4cnccc34)cc2)CC1 [(2), N-(8-fluoroisoquinolin-5-yl)-4-(1-methylpiperidin-4-yl)benzamide] was tested, and the IC50 was 1400 nM. Compound Cc1cc(OCCN(C)C)ccc1C(=O)Nc1cccc2ncccc12 [(47), 4-(2-(dimethylamino)ethoxy)-2-methyl-N-(quinolin-5-yl)benzamide] has an IC50 of 1700 nM. CN(C)CCOc1ccc(C(=O)Nc2ccc(Cl)c3ncccc23)cc1 [(32), N-(8-chloroquinolin-5-yl)-4-[2-(dimethylamino)ethoxy]benzamide] gave an IC50 of 2400 nM. CN1CCN(c2ccc(C(=O)Nc3ccc(C(F)(F)F)c4ccncc34)cc2)CC1 [(52), 4-(4-methylpiperazin-1-yl)-N-[5-(trifluoromethyl)isoquinolin-8-yl]benzamide hydrochloride] showed an IC50 of 7500 nM. Work on CN1CCC(c2ccc(C(=O)Nc3cccc4ncccc34)cc2)CC1 [(6), 4-(1-methylpiperidin-4-yl)-N-(quinolin-5-yl)benzamide] yielded an IC50 of 1300 nM. Work on CN1CCN(c2ccc(C(=O)Nc3cccc4nccnc34)cc2)CC1 [(41), 4-(4-methylpiperazin-1-yl)-N-(quinoxalin-5-yl)benzamide] yielded an IC50 of 600 nM. CN1CCN(c2ccc(C(=O)Nc3ccc(F)c4ncccc34)cc2)CC1 [(44), N-(8-fluoroquinolin-5-yl)-4-(4-methylpiperazin-1-yl)benzamide] was tested, and the IC50 was 3800 nM.
